Patent publication US6475746B1, “Method of obtaining a composition comprising a 5-HT1D selective compound” (Synaptic Pharmaceutical Corporation, priority 1990, dated 2002)
Read-outs that look alike come from different tables or passages of the source.

Key:
Cloned Human 5-HT1D-2 = Cloned Human 5-HT1D-2 (Homo sapiens, UniProt P28222); assay: [3H]5-HT binding to cloned human 5-HT1D-2 (gene 11) in transfected cell membranes
Cloned Human 5-HT1D-1 = Cloned Human 5-HT1D-1 (Homo sapiens, UniProt P28221); assay: [3H]5-HT binding to cloned human 5-HT1D-1 (gene 8-30-84) in transfected cell membranes
[1] = target: T1, cloned rat 5-HT1B receptor (Rattus norvegicus, UniProt P28564); assay type: binding
T1 construct: expressed in transfected cells; host or cells: Cos-7 cells, transient; membrane fraction
Description: To islolate the putative rat homolog of the 5-HT1D gone, a rat library was screened at high stringency using a human 5-HT1D sequence as a probe. […] To identify the pharmacological profile of this receptor, radioligand binding assays were performed on a membrane fraction derived from the transfected cells.

[2] = target: Cloned Canine 5-HT1D-1 (RDC4) (Canis lupus familiaris, UniProt P11614); assay: [3H]5-HT binding to cloned canine 5-HT1D-1 (RDC4) in transfected cell membranes
[3] = target: Human Native Membranes 5-HT1D; details: literature values (footnotes a, b, c), read-out: Estimated equilibrium dissociation constants (Ki values); cited from earlier work
human 5-HT1D clone = assay: Radioligand binding to human 5-HT1D clone (comparison with rat clone)
[4] = read-out: Estimated equilibrium dissociation constants (Ki values), [3H]5-HT displacement, membranes of LM (tk−) cells stably transfected, Cheng-Prusoff

Cloned Human 5-HT1D-1, sequence (P28221 whole entry): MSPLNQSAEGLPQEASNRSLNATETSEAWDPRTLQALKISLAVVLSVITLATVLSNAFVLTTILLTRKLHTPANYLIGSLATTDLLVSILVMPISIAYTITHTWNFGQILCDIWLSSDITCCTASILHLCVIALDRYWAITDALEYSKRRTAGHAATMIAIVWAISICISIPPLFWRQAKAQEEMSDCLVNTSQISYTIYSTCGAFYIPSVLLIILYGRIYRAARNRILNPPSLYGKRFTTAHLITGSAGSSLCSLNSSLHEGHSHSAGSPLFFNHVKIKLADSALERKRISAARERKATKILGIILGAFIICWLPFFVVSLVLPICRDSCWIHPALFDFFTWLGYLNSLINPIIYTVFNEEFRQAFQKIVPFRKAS
Cloned Canine 5-HT1D-1 (RDC4), sequence (P11614 whole entry): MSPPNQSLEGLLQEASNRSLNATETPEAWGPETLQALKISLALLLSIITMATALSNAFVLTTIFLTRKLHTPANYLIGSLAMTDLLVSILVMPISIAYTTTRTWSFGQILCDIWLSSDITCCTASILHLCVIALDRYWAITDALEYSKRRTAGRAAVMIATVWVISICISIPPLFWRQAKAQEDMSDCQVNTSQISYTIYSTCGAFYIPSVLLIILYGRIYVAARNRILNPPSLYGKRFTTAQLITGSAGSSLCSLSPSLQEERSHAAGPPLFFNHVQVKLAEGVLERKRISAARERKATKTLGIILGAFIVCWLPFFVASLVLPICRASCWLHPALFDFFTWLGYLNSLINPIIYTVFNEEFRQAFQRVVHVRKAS
Cloned Human 5-HT1D-2, sequence (P28222 whole entry): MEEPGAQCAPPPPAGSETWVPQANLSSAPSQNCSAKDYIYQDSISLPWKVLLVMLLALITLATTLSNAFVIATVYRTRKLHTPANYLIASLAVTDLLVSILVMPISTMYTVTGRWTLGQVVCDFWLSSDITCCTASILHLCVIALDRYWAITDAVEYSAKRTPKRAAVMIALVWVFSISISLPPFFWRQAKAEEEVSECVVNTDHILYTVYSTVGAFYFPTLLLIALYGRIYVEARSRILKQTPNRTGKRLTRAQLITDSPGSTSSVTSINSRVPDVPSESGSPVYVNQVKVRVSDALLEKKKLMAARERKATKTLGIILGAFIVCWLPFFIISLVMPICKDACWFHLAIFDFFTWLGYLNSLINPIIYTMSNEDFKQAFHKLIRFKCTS
T1 sequence (P28564 whole entry): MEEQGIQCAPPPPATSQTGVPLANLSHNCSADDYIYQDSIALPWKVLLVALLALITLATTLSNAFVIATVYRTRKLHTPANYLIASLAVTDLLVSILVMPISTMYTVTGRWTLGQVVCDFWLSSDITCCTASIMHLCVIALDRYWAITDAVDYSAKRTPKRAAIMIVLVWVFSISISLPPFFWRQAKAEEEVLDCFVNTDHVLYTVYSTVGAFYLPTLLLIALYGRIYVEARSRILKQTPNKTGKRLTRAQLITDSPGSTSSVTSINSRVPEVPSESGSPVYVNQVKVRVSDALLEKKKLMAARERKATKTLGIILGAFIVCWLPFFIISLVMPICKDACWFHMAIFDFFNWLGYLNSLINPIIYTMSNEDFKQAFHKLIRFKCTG

Compound: CCCN(CCC)CCc1c[nH]c2ccc(C(N)=O)cc12 [Dipropyl-5-CT, dipropyl-5-carboxyamidotryptamine]
- Ki (Cloned Human 5-HT1D-2; [4]): 0.042 ± 0.004 µM
- Ki (Cloned Human 5-HT1D-1; [4]): 0.013 ± 0.001 µM
- activity at the rat receptor [1]: essentially inactive

Compound: CC[C@@H](CO)NC(=O)[C@@H]1C=C2c3cccc4[nH]cc(c34)C[C@H]2N(C)C1 [Methylergonovine]
- Ki (Cloned Human 5-HT1D-2): 0.0029 ± 0.0015 µM
- Ki (Cloned Human 5-HT1D-1): 0.00086 ± 0.00036 µM

Compound: O=C(CCCN1CCC2(CC1)C(=O)NCN2c1ccccc1)c1ccc(F)cc1 [Spiperone]
- Ki (Cloned Human 5-HT1D-2): > 10 µM
- Ki [2]: > 1 µM
- Ki (Cloned Human 5-HT1D-1; [4]): 0.995 ± 0.096 µM

Compound: Cc1nc2sccn2c(=O)c1CCN1CCC(=C(c2ccc(F)cc2)c2ccc(F)cc2)CC1 [Ritanserin]
- Ki (Cloned Human 5-HT1D-2): 1.2 ± 0.115 µM
- Ki [3]: 3.6 µM
- Ki (Cloned Human 5-HT1D-1): 0.054 ± 0.01 µM

Compound: COC(=O)[C@@H]1[C@H]2C[C@H]3c4[nH]c5ccccc5c4CCN3C[C@@H]2CC[C@@H]1O [Yohimbine]
- Ki [2, 4]: 0.032 ± 0.006 µM
- Ki [3]: 0.042 µM
- Ki (Cloned Human 5-HT1D-1; [4]): 0.022 ± 0.002 µM

Compound: c1ccc2c(N3CCNCC3)cccc2c1 [1-Napthylpiperazine]
- Ki (Cloned Human 5-HT1D-2; [4]): 0.012 ± 0.002 µM
- Ki (Cloned Human 5-HT1D-1; [4]): 0.0074 ± 0.0006 µM

Compound: CN1C[C@H](CNC(=O)OCc2ccccc2)C[C@@H]2c3cccc4c3c(cn4C)C[C@H]21 [Metergoline]
- Ki (Cloned Human 5-HT1D-2): 0.018 ± 0.003 µM
- Ki [3]: 0.012 µM
- Ki (Cloned Human 5-HT1D-1): 0.0058 ± 0.0011 µM

Compound: NCCc1c[nH]c2ccc(C(N)=O)cc12 [5-Carboxamidotryptamine]
- affinity for the binding site ([2]; RDC4-transfected cells): high affinity
- Ki [2, 4]: 0.00092 ± 6e-05 µM

Compound: CN1[C@@H]2CC[C@H]1C[C@@H](OC(=O)c1c[nH]c3ccccc13)C2 [ICS 205-930]
- ability to compete for 3H-5-HT binding sites ([2]; RDC4-transfected cells): unable to compete

Compound: NCCc1c[nH]c2ccc(OCc3ccccc3)cc12 [5-Benzoxyltryptamine]
- Ki (Cloned Human 5-HT1D-2; [4]): 0.019 ± 0.008 µM
- Ki (Cloned Human 5-HT1D-1; [4]): 0.0096 ± 0.003 µM

Compound: Clc1cccc(N2CCNCC2)c1 [mCPP]
- Ki (Cloned Human 5-HT1D-2; [4]): 0.361 ± 0.031 µM
- Ki [2, 4]: 0.329 ± 0.08 µM
- Ki [3]: 1.2 µM
- Ki (Cloned Human 5-HT1D-1; [4]): 0.216 ± 0.02 µM

Compound: CNS(=O)(=O)Cc1ccc2[nH]cc(CCN(C)C)c2c1 [Sumatriptan]
- affinity (Cloned Human 5-HT1D-1; refers to Table 1): extremely high affinity

Compound: CN1C[C@H](C(=O)N[C@]2(C)O[C@@]3(O)[C@@H]4CCCN4C(=O)[C@H](Cc4ccccc4)N3C2=O)C=C2c3cccc4[nH]cc(c34)C[C@H]21 [Ergotamine]
- Ki [2]: 0.0019 ± 0.0003 µM
- Ki [3]: 0.0003 µM

Compound: COc1cc(N)c(Cl)cc1C(=O)NC1CN2CCC1CC2 (stereo not shown) [Zacopride]
- Ki (Cloned Human 5-HT1D-2): > 10 µM
- Ki [2]: > 10 µM
- Ki (Cloned Human 5-HT1D-1): > 10 µM

Compound: CN1C[C@H](CO)C=C2c3cccc4[nH]cc(c34)C[C@H]21 [Lysergol]
- Ki (Cloned Human 5-HT1D-2; [4]): 0.0012 ± 0.0001 µM
- Ki (Cloned Human 5-HT1D-1; [4]): 0.00063 ± 0.0001 µM

Compound: CC(C)NCC(O)COc1cccc2[nH]ccc12 (stereo not shown) [Pindolol]
- Ki (Cloned Human 5-HT1D-2): 4.88 ± 0.302 µM
- effect of masking ligand on specific binding or pharmacological profile (Cloned Human 5-HT1D-2; transfected Cos-7 cells, peptide 11, masking ligand 1 μM): no significant effect
- Ki [2]: > 1 µM
- effect of co-incubation on high affinity 3H-5-HT binding ([2]; RDC4-transfected cells, 1 μm): not affected
- effect of masking ligand on specific binding or pharmacological profile ([2]; transfected Cos-7 cells, RDC4, masking ligand 1 μM): no significant effect
- Ki [3]: > 10 µM
- Ki (Cloned Human 5-HT1D-1): 4.11 ± 0.504 µM

Compound: Corynanthine
- Ki [3]: > 10 µM

Compound: O=C(c1ccc(F)cc1)C1CCN(CCn2c(=O)[nH]c3ccccc3c2=O)CC1 [Ketanserin]
- Ki (Cloned Human 5-HT1D-2): 5.2 ± 0.524 µM
- Ki [2]: > 1 µM
- ability to compete for 3H-5-HT binding sites ([2]; RDC4-transfected cells): unable to compete
- Ki [3]: > 10 µM
- Ki (Cloned Human 5-HT1D-1): 0.073 ± 0.012 µM

Compound: CCCN(CCC)C1CCc2cccc(O)c2C1 (stereo not shown) [DPAT]
- Ki [2, 4]: 0.086 ± 0.021 µM
- Ki [3]: 0.34 µM

Compound: Cc1[nH]c2ccc(O)cc2c1CCN [2-methyl-5-HT]
- Ki (Cloned Human 5-HT1D-2; [4]): 0.86 ± 0.109 µM
- Ki [2, 4]: 0.444 ± 0.03 µM
- Ki [3]: 1.7 µM
- Ki (Cloned Human 5-HT1D-1; [4]): 0.915 ± 0.068 µM

Compound: NCCc1c[nH]c2ccccc12 [Tryptamine]
- Ki [2, 4]: 0.343 ± 0.015 µM
- Ki [3]: 0.046 µM

Compound: Cc1ccc(N(CC2=NCCN2)c2cccc(O)c2)cc1 [Phentolamine]
- Ki (Cloned Human 5-HT1D-2): 2.15 ± 0.685 µM
- Ki (Cloned Human 5-HT1D-1): 0.775 ± 0.072 µM

Compound: CSc1ccc2c(c1)C(N1CCN(C)CC1)Cc1ccccc1S2 (stereo not shown) [Methiothepin]
- Ki (Cloned Human 5-HT1D-2; [4]): 0.025 ± 0.007 µM
- Ki [3]: 0.017 µM
- Ki (Cloned Human 5-HT1D-1; [4]): 0.011 ± 0.002 µM

Compound: NCCc1c[nH]c2ccc(O)cc12 [5-Hydrozytryptamine]
- Ki [2, 4]: 0.005 ± 0.0014 µM
- Ki [3]: 0.0065 µM

Compound: COc1ccc2[nH]cc(CCN(C)C)c2c1 [5-methoxy-DMT]
- Ki [2, 4]: 0.0051 ± 0.0017 µM

Compound: FC(F)(F)c1cccc(N2CCNCC2)c1 [TFMPP]
- Ki [2, 4]: 0.112 ± 0.014 µM
- Ki [3]: 0.21 µM

Compound: CN1CCc2cc(Cl)c(O)cc2[C@@H](c2ccccc2)C1 [SCH-23390]
- Ki (Cloned Human 5-HT1D-2): 1.21 ± 0.626 µM
- Ki (Cloned Human 5-HT1D-1): 0.676 ± 0.069 µM

Compound: CC(C)(C)NCC(O)COc1cccc2[nH]c(C#N)c(I)c12 (stereo not shown) [[^125I]iodocyanopindolol]
- Kd ([1]; Cos-7 membranes, in the presence of 3 μM isoproterenol, read-out: Kd of [125I]iodocyanopindolol): 0.00016 µM

Compound: Oc1ccc2c(CCC3CCNCC3)c[nH]c2c1 [6-OH-indalpine]
- ability to compete for 3H-5-HT binding sites ([2]; RDC4-transfected cells): unable to compete

Compound: COc1cc(CC(C)N)c(OC)cc1I (stereo not shown) [DOI]
- Ki (Cloned Human 5-HT1D-2; [4]): 1.67 ± 0.451 µM
- Ki [2, 4]: 0.729 ± 0.102 µM
- Ki [3]: 0.67 µM
- Ki (Cloned Human 5-HT1D-1; [4]): 0.714 ± 0.081 µM

Compound: CC[C@@H](CO)NC(=O)[C@@H]1C=C2c3cccc4c3c(cn4C)C[C@H]2N(C)C1 [Methysergide]
- Ki (Cloned Human 5-HT1D-2; [4]): 0.025 ± 0.005 µM
- Ki [2, 4]: 0.0077 ± 0.0017 µM
- Ki (Cloned Human 5-HT1D-1; [4]): 0.0036 ± 0.0006 µM

Compound: CC(C)(C)NCC(O)COc1cccc2[nH]c(C#N)c([125I])c12 (stereo not shown) [[^125I]iodocyanopindolol]
- specific binding of [125I]I-CYP (human 5-HT1D clone; at 1 nM): no specific binding detected

Compound: ^3H-5-HT
- Kd (human 5-HT1D clone; read-out: Kd of [3H]5-HT): 0.004 µM
- Kd ([2]; read-out: KD of radioligand (apparent high affinity), RDC4-transfected Cos-7 and Ltk- cells): ~0.003 µM
- Kd ([2]; read-out: Kd of radioligand, Ltk- cells transfected with RDC4): 0.0036 µM
- Kd ([2]; read-out: affinity of radioligand binding, transiently transfected Cos-7 cells, RDC4): 0.003 µM

Compound: COC(=O)[C@H]1[C@H]2C[C@H]3c4[nH]c5ccccc5c4CCN3C[C@H]2CC[C@@H]1O [Rauwolscine]
- Ki [2]: 0.0053 ± 0.0029 µM
- Ki (Cloned Human 5-HT1D-1): 0.016 ± 0.002 µM

Compound: COc1ccccc1N1CCN(CCCCN2C(=O)c3ccccc3C2=O)CC1 [NAN-190]
- Ki (Cloned Human 5-HT1D-2): 0.652 ± 0.048 µM
- Ki (Cloned Human 5-HT1D-1): 0.194 ± 0.012 µM

Compound: COc1ccc2[nH]cc(CCN)c2c1 [5-Methoxytryptamine]
- Ki [3]: 0.0062 µM

Compound: Nc1ccc(CCN2CCN(c3cccc(C(F)(F)F)c3)CC2)cc1 [PAPP]
- Ki (Cloned Human 5-HT1D-2; [4]): 0.01 ± 0.001 µM
- Ki [2, 4]: 0.035 ± 0.006 µM
- Ki (Cloned Human 5-HT1D-1; [4]): 0.0031 ± 0.0002 µM
